Test results reported in patent publication US7063946B2, “Methods, reagents, kits and apparatus for protein function analysis” (Meso Scale Technologies, LLC., priority 2001, dated 2006).

Columns and labels:
FRK = assay: Kinase inhibitor profiling, pEY phosphorylation; type: biochemical
Epha7 = biological target: T1, Epha7 (Mus musculus, UniProt Q61772); assay: Kinase inhibitor profiling, autophosphorylation; type: biochemical
T1 construct: autophosphorylation activity from full-length clones Spleen Tyrosine Kinase (SYK) and Eph receptor-A7 (EphA7); host or cells: rabbit reticulocyte lysate, TnT coupled in vitro transcription/translation (cell-free)
T1 sequence (Q61772 28-998): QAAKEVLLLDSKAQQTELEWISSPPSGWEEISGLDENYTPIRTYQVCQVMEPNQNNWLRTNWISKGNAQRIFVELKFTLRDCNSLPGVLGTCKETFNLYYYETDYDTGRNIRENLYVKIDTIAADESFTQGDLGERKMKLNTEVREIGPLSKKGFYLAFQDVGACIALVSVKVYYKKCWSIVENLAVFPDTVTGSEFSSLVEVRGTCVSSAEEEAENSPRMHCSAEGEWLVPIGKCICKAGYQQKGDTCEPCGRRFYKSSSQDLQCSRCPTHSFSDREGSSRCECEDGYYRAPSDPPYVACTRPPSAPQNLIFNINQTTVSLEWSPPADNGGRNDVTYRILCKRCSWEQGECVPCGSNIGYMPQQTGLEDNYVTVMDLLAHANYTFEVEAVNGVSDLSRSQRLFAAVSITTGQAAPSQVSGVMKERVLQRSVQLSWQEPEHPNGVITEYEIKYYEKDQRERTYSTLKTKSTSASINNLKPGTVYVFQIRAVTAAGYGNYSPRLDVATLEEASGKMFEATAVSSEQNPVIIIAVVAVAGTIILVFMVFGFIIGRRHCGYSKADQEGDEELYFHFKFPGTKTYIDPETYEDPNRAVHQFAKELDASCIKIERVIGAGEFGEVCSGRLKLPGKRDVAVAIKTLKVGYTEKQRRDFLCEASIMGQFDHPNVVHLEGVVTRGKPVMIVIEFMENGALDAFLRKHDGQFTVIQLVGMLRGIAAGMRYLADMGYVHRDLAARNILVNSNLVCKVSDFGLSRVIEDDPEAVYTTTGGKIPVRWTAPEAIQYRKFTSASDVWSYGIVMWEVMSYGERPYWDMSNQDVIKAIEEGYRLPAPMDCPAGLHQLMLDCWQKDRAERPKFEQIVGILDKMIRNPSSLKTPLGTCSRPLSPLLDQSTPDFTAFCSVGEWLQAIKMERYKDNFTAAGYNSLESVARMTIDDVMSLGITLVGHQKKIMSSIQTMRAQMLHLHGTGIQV

SMILES | Inhibition specificity towards pEY phosphorylation at 10X IC50, FRK (FRK) | Inhibition specificity towards Autophosphorylation at 10X IC50, Epha7 (Epha7)
COc1c(C=O)c(O)cc2c1C(=O)c1ccccc1C2=O [Damnacanthal] | H (high inhibition (“H”=less than 25% of the activity remaining)) | H (high inhibition (“H”=less than 25% of the activity remaining))
Cc1cc2ncc(-c3ccc(O)c(O)c3)nc2cc1C [AG-1433] | – | H (high inhibition (“H”=less than 25% of the activity remaining))
